According to publication PMC9721424, “Novel N-methylsulfonyl-indole derivatives: biological activity and COX-2/5-LOX inhibitory effect with improved gastro protective profile and reduced cardio vascular risks” (Journal of Enzyme Inhibition and Medicinal Chemistry, 2022):
Where two headings read alike, the source gives them in different places.

What was measured:
[1] = target: T1, 5-LOX enzyme (Homo sapiens, UniProt P09917); experiment: 5-LOX inhibition, Human Lipoxygenase Inhibitor Screening Assay (EIA) kit; type: biochemical
T1 construct: purchased Cayman Chemical K980-100
T1 sequence (P09917 1-674): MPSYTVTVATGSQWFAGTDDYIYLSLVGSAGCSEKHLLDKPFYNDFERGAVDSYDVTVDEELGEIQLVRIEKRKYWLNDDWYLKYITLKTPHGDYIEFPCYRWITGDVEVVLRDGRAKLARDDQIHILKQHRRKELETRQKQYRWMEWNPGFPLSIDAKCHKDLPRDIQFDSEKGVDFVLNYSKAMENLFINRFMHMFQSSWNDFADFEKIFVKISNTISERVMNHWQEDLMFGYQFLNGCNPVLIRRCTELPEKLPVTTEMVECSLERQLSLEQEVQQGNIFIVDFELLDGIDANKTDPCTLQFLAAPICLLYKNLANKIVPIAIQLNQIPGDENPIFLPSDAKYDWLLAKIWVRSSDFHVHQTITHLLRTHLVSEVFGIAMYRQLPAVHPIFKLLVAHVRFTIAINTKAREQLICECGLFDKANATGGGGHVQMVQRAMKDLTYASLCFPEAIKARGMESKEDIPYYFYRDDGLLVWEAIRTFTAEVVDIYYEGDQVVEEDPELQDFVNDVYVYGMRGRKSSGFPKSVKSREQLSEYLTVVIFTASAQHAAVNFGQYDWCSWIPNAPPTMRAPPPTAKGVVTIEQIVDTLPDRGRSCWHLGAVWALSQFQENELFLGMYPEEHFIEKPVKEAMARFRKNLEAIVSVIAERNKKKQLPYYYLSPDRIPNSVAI
Procedure: The ability of the test compounds to inhibit the 5-LOX enzyme (IC50 value, μM) was detected using the Cayman Human Lipoxygenase Inhibitor Screening Assay (EIA) kit (catalog no. K980-100, Cayman Chemical). The IC50 values of test compounds were measured in µM according to the manufacturer’s instructions and reported method.

[2] = target: T2, ovine COX-1 (Ovis aries, UniProt P05979); experiment: COX-1 inhibition, enzyme immune assay (EIA) kit; conditions: for IC50: IC50 COX-1
T2 sequence (P05979 25-600): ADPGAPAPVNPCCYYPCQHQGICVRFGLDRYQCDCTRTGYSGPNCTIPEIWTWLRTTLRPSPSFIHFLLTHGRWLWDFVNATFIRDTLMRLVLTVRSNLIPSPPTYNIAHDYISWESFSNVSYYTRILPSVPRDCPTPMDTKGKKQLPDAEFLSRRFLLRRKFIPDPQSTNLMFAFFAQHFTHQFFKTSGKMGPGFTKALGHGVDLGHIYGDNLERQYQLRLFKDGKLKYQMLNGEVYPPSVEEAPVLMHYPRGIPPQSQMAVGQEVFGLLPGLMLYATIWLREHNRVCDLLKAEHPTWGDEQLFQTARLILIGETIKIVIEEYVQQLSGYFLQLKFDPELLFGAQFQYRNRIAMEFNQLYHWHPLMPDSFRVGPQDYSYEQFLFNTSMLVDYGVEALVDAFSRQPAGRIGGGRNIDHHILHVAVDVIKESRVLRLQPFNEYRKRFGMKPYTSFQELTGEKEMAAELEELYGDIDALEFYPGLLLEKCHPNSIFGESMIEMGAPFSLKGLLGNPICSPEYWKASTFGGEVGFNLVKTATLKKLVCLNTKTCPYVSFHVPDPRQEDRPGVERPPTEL
Source text: Colorimetric enzyme immunoassay (EIA) kits were done to screen for the isozyme-specific inhibition.

[3] = DPPH free radical assay; type: biochemical; conditions: 540 nm, relative to Trolox; for DPPH test results (µM trolox equivalent/ 1mg sample ± SD): 30 min
Procedure: Preparation of samples was occurred at the following concentrations: Samples 3a, 4a, 5b, 5d and 5e at final concentrations of 0.5 mg/ml in methanol: DMSO 9:1 v/v. Samples 4b and 4d at final concentrations 0.025 mg/ml in methanol: DMSO 9:1 v/v, sample 5a at final concentrations 0.25 mg/ml in methanol: DMSO 9:1 v/v, Sample 4c, 5c and 4e at final concentrations 0.05 mg/ml in methanol: DMSO 9:1 v/v, sample 3b at final concentration 0.75 mg/ml methanol: DMSO 9:1 v/v. A stock solution of 100 µM concentration of Trolox, a standard used in this experiment, was prepared in methanol from which seven concentrations were prepared, including 50, 40, 30, 20, 15, 10 and 5 µM.
The DPPH (2,2-diphenyl-1-picryl-hydrazyl-hydrate) free radical assay was carried out according to the method of Boly et al. 2016[39]. Briefly, freshly prepared DPPH reagent (100 µl, 0.1% in methanol) was added to 100 µl of the sample on 96 well plates (n = 6). The reaction was incubated at room temp for 30 min in the dark. After completion of the incubation time, the reduction in DPPH colour intensity was measured at 540 nm. Data obtained was represented as means ± SD, according to the following equation, percentage inhibition = [(Average absorbance of blank – average absorbance of the test)/(Average absorbance of blank)] *100. The results were recorded using a microplate reader, FluoStar Omega.
Microsoft Excel® was used to analyse the obtained results. The IC50 values were calculated using Graph pad Prism 6® by converting the concentrations to their logarithmic value and selecting the non-linear inhibitor regression equation (log (inhibitor) vs. normalised response – variable slope equation). The methods used and the final test report (R-SO7320) were obtained from Nawah Scientific.

[4] = target: T3, COX-2 (Ovis aries, UniProt P79208); experiment: COX-2 inhibition, enzyme immune assay (EIA) kit; type: biochemical, ovine; conditions: for S.I (IC50 COX-1/IC50 COX-2): COX-2 selectivity index; for SI: lab report, COX1/COX2
T3 sequence (P79208 17-603): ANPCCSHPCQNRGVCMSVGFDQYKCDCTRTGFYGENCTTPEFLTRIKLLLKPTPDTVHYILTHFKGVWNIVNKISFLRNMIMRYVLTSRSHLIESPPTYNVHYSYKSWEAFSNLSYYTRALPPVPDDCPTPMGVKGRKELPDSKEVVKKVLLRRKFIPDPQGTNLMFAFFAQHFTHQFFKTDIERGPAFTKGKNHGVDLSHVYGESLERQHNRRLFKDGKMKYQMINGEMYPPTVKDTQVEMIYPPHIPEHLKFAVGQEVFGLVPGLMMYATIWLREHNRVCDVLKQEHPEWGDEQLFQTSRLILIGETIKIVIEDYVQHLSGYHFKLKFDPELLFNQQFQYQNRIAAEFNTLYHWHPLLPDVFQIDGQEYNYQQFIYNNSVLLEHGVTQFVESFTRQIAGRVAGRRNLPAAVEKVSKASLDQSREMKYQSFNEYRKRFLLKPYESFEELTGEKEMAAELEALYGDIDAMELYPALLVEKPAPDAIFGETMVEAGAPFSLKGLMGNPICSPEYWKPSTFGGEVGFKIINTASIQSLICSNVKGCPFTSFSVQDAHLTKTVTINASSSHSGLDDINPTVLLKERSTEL

Row | Compound | melting point [°C] | IC50 [1] [µM] | 5-LOX %inh ([1]; conc 0.1 (μM)) [%] | 5-LOX %inh ([1]; conc 1 (μM)) [%] | 5-LOX %inh ([1]; conc 10 (μM)) [%] | 5-LOX %inh ([1]; conc 100 (μM)) [%] | IC50 [2] [µM] | COX1 %inh ([2]; conc 0.1 (μM)) [%] | COX1 %inh ([2]; conc 1 (μM)) [%] | COX1 %inh ([2]; conc 10 (μM)) [%] | COX1 %inh ([2]; conc 100 (μM)) [%] | DPPH test results (µM trolox equivalent/ 1mg sample ± SD) [3] | S.I (IC50 COX-1/IC50 COX-2) [4] | SI [4] | IC50 ([1]; lab report) [µM] | DPPH anti-oxidant activity ([3]; values in text)
1 | CS(=O)(=O)n1cc(/C=N/NC(N)=O)c2ccccc21 [Compound 3a, (E)-2{[1-(methylsulfonyl)-1H-indol-3yl]methylene}hydrazinecarboxamide] | 238 to 240 | 48.8 ± 2.58 | 2.63 | 5.83 | 18.6 | 70.3 | 21.1 ± 0.6 | 4.87 | 12.4 | 37.8 | 71 | 5.91 ± 1.87 µM trolox equivalent/ 1mg sample | 0.78 | 0.779 |  | 
2 | CS(=O)(=O)n1cc(/C=N/NC(N)=S)c2ccccc21 [Compound 4a, (E)-2{[1-(methylsulfonyl)-1H-indol-3yl]methylene}-hydrazine-1-carbothioamide] | 178 to 180 | 2.31 ± 0.12 | 11.4 | 43.6 | 69 | 90.3 | 11.3 ± 0.32 | 7.54 | 18.6 | 44 | 77.6 | 24.55 ± 1.61 µM trolox equivalent/ 1mg sample | 2.80 | 2.799 | 2.31 ± 0.12 | 
3 | CS(=O)(=O)n1cc(/C=N/NC(=S)Nc2ccccc2)c2ccccc21 [Compound 4c, (E)-2{[1-(methylsulfonyl)-1H-indol-3yl]methylene}-N-phenylhydrazinecarbothioamide] | 220 to 222 | 4.03 ± 0.21 | 12.1 | 37.1 | 57.1 | 83.8 | 5.01 ± 0.14 | 11 | 24.7 | 60.6 | 83.5 | 263.29 ± 12.30 µM trolox equivalent/ 1mg sample | 3.12 | 3.116 | 4.03 ± 0.21 | about 263.29 µM Trolox equivalent/mg
